Like-named read-outs stand apart in the source and are kept apart here.
Test: Phase 1 Stage 1 clinical pharmacokinetics of SC ZA co-administered with rHuPH20
Assay type: in vivo, human
Conditions: human, serum, sc; for Tmax: read-out: Tmax
Description: A pharmacokinetic study of zoledronic acid (ZA) co-administered with rHuPH20 in human subjects was conducted. The primary objective of the study was to determine the bioavailability of zoledronic acid dosed via subcutaneous (SC) co-administration with human recombinant hyaluronidase PH20 (rHuPH20). […] The patients were administered the prescribed dosage formulations as follows: Cohorts 1-5 were administered a single subcutaneous infusion in a dosage volume of 100 ml at a rate of 3 mL/min. […] The dosing solution is administered via needle or catheter into the SC space of the left anterior thigh (midway between the anterior iliac crest and the cephalad border of the patella). For cohorts 1-5, the dosing solutions were administered by a controlled rate infusion pump at approximately 3 mL/minute. […] The dosing solutions were administered by syringe push bolus injection. […] Serum concentration of ZA was determined using a qualified LC-MS-MS assay after derivatization with diazomethane (Zhu, L S et al. (2006) Rapid Commun. […] The assay range was from 2.0 to 400 ng/mL with a lower limit of quantitation (LLOQ) at 2.0 ng/mL. […] Non-compartmental analysis was used for derivation of primary and secondary pharmacokinetic (PK) parameters. […] Summary statistics (mean, standard deviation, and median) were calculated using JMP or Microsoft Excel.

[1] = 0.0791 mg/kg, Subj 37, ZA 0.0791 mg/kg SC, inf 0.556 hr, PH20 24000 U
[2] = 0.0794 mg/kg, Subj 74, ZA 0.0794 mg/kg SC, inf […], PH20 6000 U
[3] = 0.082 mg/kg, Subj 63, ZA 0.0820 mg/kg SC, inf […], PH20 6000 U
[4] = 0.0877 mg/kg, Subj 46, ZA 0.0877 mg/kg SC, inf 0.276 hr, PH20 12000 U
[5] = ZA 0.25 mg SC + 24000 U rHuPH20, individual subjects
[6] = ZA 0.25 mg SC + 24000 U rHuPH20, mean, n=3
[7] = ZA 0.25 mg SC + 24000 U rHuPH20, median, n=3
[8] = ZA 0.5 mg SC + 24000 U rHuPH20, individual subjects
[9] = ZA 0.5 mg SC + 24000 U rHuPH20, mean, n=3
[10] = ZA 0.5 mg SC + 24000 U rHuPH20, median, n=3
[11] = ZA 1 mg SC + 24000 U rHuPH20, individual subjects

Structure (SMILES): O=P(O)(O)C(O)(Cn1ccnc1)P(=O)(O)O [ZA, 1-hydroxy-2-(1H-imidazol-1-yl)ethylidene-1,1-bisphosphonic acid]
- AUC(0-t) (0.0791 mg/kg, AUC (0-12 h), Subj 37, ZA 0.0791 mg/kg SC, inf 0.556 hr, PH20 24000 U): 499 ng·h/mL
- AUC(0-t) (0.0791 mg/kg, AUC (0-24 h), Subj 37, ZA 0.0791 mg/kg SC, inf 0.556 hr, PH20 24000 U): 536 ng·h/mL
- AUC(0-t) (0.0791 mg/kg, AUC (0-48 h), Subj 37, ZA 0.0791 mg/kg SC, inf 0.556 hr, PH20 24000 U): 578 ng·h/mL
- Cmax [1]: 131 ng/mL
- AUC(0-inf) (0.0791 mg/kg, Subj 37, ZA 0.0791 mg/kg SC, inf 0.556 hr, PH20 24000 U, read-out: AUC (0-inf)): 620 ng·h/mL
- Tmax [1]: 0.81 h
- AUC(0-t) (0.0794 mg/kg, AUC (0-12 h), Subj 74, ZA 0.0794 mg/kg SC, inf […], PH20 6000 U): 426 ng·h/mL
- AUC(0-t) (0.0794 mg/kg, AUC (0-24 h), Subj 74, ZA 0.0794 mg/kg SC, inf […], PH20 6000 U): 467 ng·h/mL
- AUC(0-t) (0.0794 mg/kg, AUC (0-48 h), Subj 74, ZA 0.0794 mg/kg SC, inf […], PH20 6000 U): 509 ng·h/mL
- Cmax [2]: 120 ng/mL
- AUC(0-inf) (0.0794 mg/kg, Subj 74, ZA 0.0794 mg/kg SC, inf […], PH20 6000 U, read-out: AUC (0-inf)): 555 ng·h/mL
- Tmax [2]: 0.75 h
- AUC(0-t) (0.082 mg/kg, AUC (0-12 h), Subj 63, ZA 0.0820 mg/kg SC, inf […], PH20 6000 U): 497 ng·h/mL
- AUC(0-t) (0.082 mg/kg, AUC (0-24 h), Subj 63, ZA 0.0820 mg/kg SC, inf […], PH20 6000 U): 559 ng·h/mL
- AUC(0-t) (0.082 mg/kg, AUC (0-48 h), Subj 63, ZA 0.0820 mg/kg SC, inf […], PH20 6000 U): 613 ng·h/mL
- Cmax [3]: 167 ng/mL
- AUC(0-inf) (0.082 mg/kg, Subj 63, ZA 0.0820 mg/kg SC, inf […], PH20 6000 U, read-out: AUC (0-inf)): 662 ng·h/mL
- Tmax [3]: 0.5 h
- AUC(0-t) (0.0877 mg/kg, AUC (0-12 h), Subj 46, ZA 0.0877 mg/kg SC, inf 0.276 hr, PH20 12000 U): 610 ng·h/mL
- AUC(0-t) (0.0877 mg/kg, AUC (0-24 h), Subj 46, ZA 0.0877 mg/kg SC, inf 0.276 hr, PH20 12000 U): 656 ng·h/mL
- AUC(0-t) (0.0877 mg/kg, AUC (0-48 h), Subj 46, ZA 0.0877 mg/kg SC, inf 0.276 hr, PH20 12000 U): 706 ng·h/mL
- Cmax [4]: 213 ng/mL
- AUC(0-inf) (0.0877 mg/kg, Subj 46, ZA 0.0877 mg/kg SC, inf 0.276 hr, PH20 12000 U, read-out: AUC (0-inf)): 747 ng·h/mL
- Tmax [4]: 0.78 h
- MRT (0.5 mg, ZA 0.5 mg, SC […] infusion, 100 mL, 3 mL/min, 24000 Units rHuPH20, extrapolated to ∞, individual subjects, read-out: SC MRT): 3.19 h
- MRT (1 mg, ZA 1 mg, SC […] infusion, 100 mL, 3 mL/min, 24000 Units rHuPH20, extrapolated to ∞, individual subjects, read-out: SC MRT): 6.93 h
- MRT (2 mg, ZA 2 mg, SC […] infusion, 100 mL, 3 mL/min, 24000 Units rHuPH20, extrapolated to ∞, individual subjects, read-out: SC MRT): 5.72 h
- MRT (5 mg, ZA 5 mg, SC […] infusion, 100 mL, 3 mL/min, 24000 Units rHuPH20, extrapolated to ∞, individual subjects, read-out: SC MRT): 10.9 h
- AUC(0-t) (AUC (0-12h), ZA 0.25 mg SC + 24000 U rHuPH20, individual subjects): 29.7 ng·h/mL
- AUC(0-t) (AUC (0-12h), ZA 0.25 mg SC + 24000 U rHuPH20, mean, n=3): 29.5 ng·h/mL
- AUC(0-t) (AUC (0-12h), ZA 0.25 mg SC + 24000 U rHuPH20, median, n=3): 29.5 ng·h/mL
- AUC(0-t) (AUC (0-12h), ZA 0.5 mg SC + 24000 U rHuPH20, individual subjects): 60.8 ng·h/mL
- AUC(0-t) (AUC (0-12h), ZA 0.5 mg SC + 24000 U rHuPH20, mean, n=3): 63.2 ng·h/mL
- AUC(0-t) (AUC (0-12h), ZA 0.5 mg SC + 24000 U rHuPH20, median, n=3): 62.4 ng·h/mL
- AUC(0-t) (AUC (0-12h), ZA 1 mg SC + 24000 U rHuPH20, individual subjects): 103 ng·h/mL
- AUC(0-t) (AUC (0-12h), ZA 1 mg SC + 24000 U rHuPH20, mean, n=3): 115 ng·h/mL
- AUC(0-t) (AUC (0-12h), ZA 1 mg SC + 24000 U rHuPH20, median, n=3): 104 ng·h/mL
- AUC(0-t) (AUC (0-12h), ZA 2 mg SC + 24000 U rHuPH20, individual subjects): 218 ng·h/mL
- AUC(0-t) (AUC (0-12h), ZA 2 mg SC + 24000 U rHuPH20, mean, n=3): 223 ng·h/mL
- AUC(0-t) (AUC (0-12h), ZA 2 mg SC + 24000 U rHuPH20, median, n=3): 218 ng·h/mL
- AUC(0-t) (AUC (0-12h), ZA 5 mg SC + 24000 U rHuPH20, individual subjects): 499 ng·h/mL
- AUC(0-t) (AUC (0-12h), ZA 5 mg SC + 24000 U rHuPH20, mean, n=3): 517 ng·h/mL
- AUC(0-t) (AUC (0-12h), ZA 5 mg SC + 24000 U rHuPH20, median, n=3): 499 ng·h/mL
- CL/F [5]: 2.47 mL/min/kg
- Cmax [5]: 6.84 ng/mL
- AUC(0-inf) (ZA 0.25 mg SC + 24000 U rHuPH20, individual subjects, read-out: AUC (0-∞)): 30.8 ng·h/mL
- MRT (ZA 0.25 mg SC + 24000 U rHuPH20, individual subjects, read-out: MRT): 2.93 h
- Tmax [5]: 1.06 h
- Vd/F (ZA 0.25 mg SC + 24000 U rHuPH20, individual subjects, read-out: Vss/F): 0.435 L/kg
- Vd/F (ZA 0.25 mg SC + 24000 U rHuPH20, individual subjects, read-out: Vz/F): 0.402 L/kg
- CL/F [6]: 2 mL/min/kg
- Cmax [6]: 6.75 ng/mL
- AUC(0-inf) (ZA 0.25 mg SC + 24000 U rHuPH20, mean, n=3, read-out: AUC (0-∞)): 30.9 ng·h/mL
- MRT (ZA 0.25 mg SC + 24000 U rHuPH20, mean, n=3, read-out: MRT): 3.5 h
- Tmax [6]: 1.31 h
- Vd/F (ZA 0.25 mg SC + 24000 U rHuPH20, mean, n=3, read-out: Vss/F): 0.411 L/kg
- Vd/F (ZA 0.25 mg SC + 24000 U rHuPH20, mean, n=3, read-out: Vz/F): 0.364 L/kg
- CL/F [7]: 1.8 mL/min/kg
- Cmax [7]: 6.84 ng/mL
- AUC(0-inf) (ZA 0.25 mg SC + 24000 U rHuPH20, median, n=3, read-out: AUC (0-∞)): 30.8 ng·h/mL
- MRT (ZA 0.25 mg SC + 24000 U rHuPH20, median, n=3, read-out: MRT): 3.37 h
- Tmax [7]: 1.31 h
- Vd/F (ZA 0.25 mg SC + 24000 U rHuPH20, median, n=3, read-out: Vss/F): 0.433 L/kg
- Vd/F (ZA 0.25 mg SC + 24000 U rHuPH20, median, n=3, read-out: Vz/F): 0.363 L/kg
- MRT (ZA 0.25 mg, SC […] infusion, 100 mL, 3 mL/min, 24000 Units rHuPH20, extrapolated to ∞, individual subjects, read-out: SC MRT): 3.37 h
- CL/F [8]: 2.35 mL/min/kg
- Cmax [8]: 15.3 ng/mL
- AUC(0-inf) (ZA 0.5 mg SC + 24000 U rHuPH20, individual subjects, read-out: AUC (0-∞)): 62.5 ng·h/mL
- MRT (ZA 0.5 mg SC + 24000 U rHuPH20, individual subjects, read-out: MRT): 3.19 h
- Tmax [8]: 0.81 h
- Vd/F (ZA 0.5 mg SC + 24000 U rHuPH20, individual subjects, read-out: Vss/F): 0.451 L/kg
- Vd/F (ZA 0.5 mg SC + 24000 U rHuPH20, individual subjects, read-out: Vz/F): 0.456 L/kg
- CL/F [9]: 2.08 mL/min/kg
- Cmax [9]: 15.5 ng/mL
- AUC(0-inf) (ZA 0.5 mg SC + 24000 U rHuPH20, mean, n=3, read-out: AUC (0-∞)): 65 ng·h/mL
- MRT (ZA 0.5 mg SC + 24000 U rHuPH20, mean, n=3, read-out: MRT): 3.26 h
- Tmax [9]: 1.14 h
- Vd/F (ZA 0.5 mg SC + 24000 U rHuPH20, mean, n=3, read-out: Vss/F): 0.406 L/kg
- Vd/F (ZA 0.5 mg SC + 24000 U rHuPH20, mean, n=3, read-out: Vz/F): 0.407 L/kg
- CL/F [10]: 2.18 mL/min/kg
- Cmax [10]: 15.3 ng/mL
- AUC(0-inf) (ZA 0.5 mg SC + 24000 U rHuPH20, median, n=3, read-out: AUC (0-∞)): 64.4 ng·h/mL
- MRT (ZA 0.5 mg SC + 24000 U rHuPH20, median, n=3, read-out: MRT): 3.24 h
- Tmax [10]: 1.31 h
- Vd/F (ZA 0.5 mg SC + 24000 U rHuPH20, median, n=3, read-out: Vss/F): 0.423 L/kg
- Vd/F (ZA 0.5 mg SC + 24000 U rHuPH20, median, n=3, read-out: Vz/F): 0.428 L/kg
- CL/F [11]: 2.38 mL/min/kg
- Cmax [11]: 30.1 ng/mL
- AUC(0-inf) (ZA 1 mg SC + 24000 U rHuPH20, individual subjects, read-out: AUC (0-∞)): 122 ng·h/mL
